Tests used:
Mus musculus = assay: Analgesic activity in sc dosed mouse assessed as inhibition of phenylquinone-induced writhing; assay type: functional; parameters: log(1/ED50): unit not given here
Opioid receptor = Opioid receptor (Rattus norvegicus, UniProt P33533+P34975+P33535); assay: Displacement of [3H]naloxone from Sprague-Dawley rat cerebellum opioid receptor assessed as relative receptor affinity by scintillation counting; assay type: protein assay
[1] = Mus musculus, sc, read-out: ED50

Compound | ED50 (Mus musculus; [1]) | log(1/ED50) (Mus musculus) | IC50 (Opioid receptor) | ED50 (Mus musculus)
CN1CC[C@]23CCCC[C@H]2[C@H]1Cc1ccc(O)cc13.O.O=C(O)C(O)C(O)C(=O)O | 0.24 mg/kg |  |  | 
C[C@H]1[C@H]2Cc3ccc(O)cc3[C@]1(c1ccccc1)CCN2C.Cl | 0.5 mg/kg | 2.82 | 0.019 µM | 
C[C@@H]1[C@@H]2Cc3ccc(O)cc3[C@@]1(c1ccccc1)CCN2C.Cl | 4.2 mg/kg | 1.9 | 10 µM | 
C[C@H]1[C@H]2Cc3ccc(O)cc3[C@]1(c1ccccc1)CC[N+]2(C)C.[I-] |  |  | 0.32 µM | 
CN1CCC2(c3ccccc3)CC1Cc1ccccc12.O=C(O)C(O)C(O)C(=O)O (single isomer, unassigned; form 1) | 5.5 mg/kg | 1.88 | 0.6 µM | 
CN1CCC2(c3ccccc3)CC1Cc1ccccc12.O=C(O)C(O)C(O)C(=O)O (single isomer, unassigned; form 2) |  | 1.71 | 3 µM | 8 mg/kg
CCOC(=O)C1(c2ccccc2)CCN(C)CC1.Cl [MEPERIDINE HYDROCHLORIDE] | 7 mg/kg | 1.61 |  | 
